In brackets after ≈: the same amount, converted by molar mass. Like-named read-outs stand apart in the source and are kept apart here.
How the values were obtained:
HEK 293 cells = assay: XTT cell viability cytotoxicity assay; conditions: n = 3, 24 h treatment
[1] = molecular target: T1, A. baumannii ATP synthase (Acinetobacter baumannii, UniProt A3M139); parameters: method as in PMID 40014581; conditions: quinoline lead of the earlier series, comparison; read-out: IC50, AB ATP synthase (converted); cited from earlier work
T1 construct: endogenous electron transport chains of inverted inner membrane vesicles were energized with NADH; endogenous in cells; host or cells: inverted inner membrane vesicles prepared from A. baumannii ATCC 17978 cells

AB ATCC 17978 [2] = assay: Checkerboard assay with colistin sulfate, ATCC 17978; conditions: for MIC: Acinetobacter baumannii, ATCC17978, read-out: MIC alone, AB ATCC 17978; for fold change of MIC, AB ATCC 17978: alone vs +colistin; for fractional inhibitory concentration index (FICI) / interaction with colistin, AB ATCC 17978: synergistic FICI ≤ 0.5, additivity FICI 0.5 < x < 1
Method: (§1) Synthesized compounds in DMSO (2–128 μg/mL, row G-A) were combined with colistin sulfate in ultra purified water (0.125–32 μg/mL, column 2–10) in a 96-well microtiter plate checkerboard assay against ATCC 17978 and BAA-1605 (MDR). Briefly, liquid cultures of bacteria were grown for 14–16 h by inoculating a single bacterial culture into 10 mL TSB. To each well 88 μL of TSB, 10 μL of bacteria culture, and 1 from each master plate was added (see layout below). Plates were covered and incubated at 37 °C for 12–18 h.

MDR AB BAA 1605 [3] = tested on: MDR AB BAA 1605; parameters: method as in PMID 40014581; conditions: quinoline lead of the earlier series, Figure 1; cited from earlier work
AB ATCC 17978 [4] = assay: Broth microdilution antimicrobial susceptibility assay, susceptible isolate; conditions: Acinetobacter baumannii, ATCC17978, read-out: MIC, AB ATCC 17978
MDR AB BAA 1605 [5] = assay: Broth microdilution antimicrobial susceptibility assay, MDR isolate; conditions: Acinetobacter baumannii, BAA1605, read-out: MIC, MDR AB BAA 1605
AB BAA 1605 = assay: Checkerboard assay with colistin sulfate, BAA 1605; conditions: for MIC: Acinetobacter baumannii, BAA1605, read-out: MIC alone, AB BAA 1605; for fold change of MIC, AB BAA 1605: alone vs +colistin; for fractional inhibitory concentration index (FICI) / interaction with colistin, MDR AB BAA 1605: synergistic FICI ≤ 0.5, additivity FICI 0.5 < x < 1
Method: as §1

[6] = molecular target: T1, A. baumannii ATP synthase; assay: AB ATP synthase inhibition: NADH-driven ATP synthesis in inverted inner membrane vesicles, luciferin/luciferase readout; assay type: biochemical; conditions: for Hill coefficient (Hill slope): fit of ATP synthesis dose response curve
Method: Once synthesized, the pyridine compounds were tested for their ability to inhibit ATP synthase activity using our previously reported luciferin/luciferase assay. Briefly, endogenous electron transport chains of inverted inner membrane vesicles were energized with NADH to generate a proton gradient and to drive ATP synthesis. ATP was measured via luminescence from the luciferase-catalyzed oxidation of D-luciferin. Luminescence activities across increasing inhibitor concentrations were corrected for gradient independent background sources of ATP by comparison with a control containing the protonophore CCCP (carbonyl cyanide 3-chlorophenylhydrazone). The data were then fit to a four-parameter logistic dose–response curve, from which IC50 values and Hill coefficients were determined using a nonlinear least-squares regression.
A. baumannii (ATCC 17978) cells were grown in LB medium at 37 °C with shaking at 150 rpm and harvested by centrifugation in the late exponential phase of growth. Cells were resuspended in TMG buffer (50 mM Tris-HCl, pH 7.5, 5 mM MgCl2, 10% v/v glycerol) with 1 mM phenylmethanesulfonyl fluoride, 1 mM dithiothreitol, and a small amount of DNase and lysed by two passes through an Avestin B15 homogenizer at 19,000 psi. Lysate was cleared by centrifugation at 9000g and inverted membrane vesicles were collected from the supernatant by centrifugation at 169,000g. To reduce background ATP synthesis activity in AB vesicles, it was important to wash the membranes by resuspending in TMG buffer and centrifuging again at 169,000g. Washed pellets were resuspended in TMG buffer, and aliquots were stored at −80 °C. Once thawed, aliquots were not refrozen. Protein concentration in membrane vesicles was determined using a modified Lowry assay.
In vitro ATP synthesis activity of inverted inner membrane vesicles was measured as previously described. A reaction solution was prepared containing 5 mM tricine-KOH, pH 8.0, 50 mM KCl, 2.5 mM MgCl2, 0.1 mM adenosine diphosphate, 3.75 mM potassium phosphate, and 2.5 mM NADH and distributed into a 96-well plate. NADH-driven ATP synthesis was initiated by addition of inverted vesicles to 50 μg/mL and allowed to proceed for 10 min. The reaction was stopped by transferring an aliquot into 1% trichloroacetic acid. The stopped reaction was diluted 100-fold with deionized water and a sample was transferred to luciferase solution containing 25 mM tricine-NaOH, pH 7.8, 5 mM MgSO4, 0.1 mM EDTA, 0.1 mM NaN3, 150 μg/mL luciferin, and 7.5 μg/mL luciferase. Luminescence was measured in an opaque white 96-well plate using a BioTek H1 multimode plate reader. Each replicate set included a positive control containing DMSO with no compound and a negative control containing carbonyl cyanide 3-chlorophenylhydrazone (CCCP). Luminescence values were corrected for background by subtracting the CCCP control and normalized to the luminescence of the DMSO control. Normalized activity was fit using a variable-slope dose response curve. Nonlinear regression, including prediction of 95% confidence bands, and pairwise comparisons of fits using the F-test method were completed using GraphPad Prism10. Relativeactivity=1/1+(c/IC50)^Hillslope […]
Figure S1. ATP synthesis inhibition by all pyridine compounds in order of WSA compound number. ATP synthesis activities in inverted inner membrane vesicles prepared from AB cells were measured in the presence of 0.0625-64 µg/mL, corrected for background ATP, and normalized to activity with DMSO alone (see methods). For each plot, dots are normalized activities at each concentration (n≥3) on a log 2 scale, solid lines are fitted dose response curves, and dashed lines show the 95% confidence range of the fit. IC50

[7] = tested on: AB electron transport chain (ETC); assay: AB electron transport chain inhibition: NADH-driven H+ pumping, ACMA fluorescence quenching; assay type: biochemical, Acinetobacter baumannii; conditions: at 2 μg/mL compound
Method: To ensure that the pyridine analogs were selectively inhibiting AB ATP synthase, each analog was also evaluated for inhibition of the AB electron transport chain (ETC) at 2 μg/mL using a standard protocol. − Briefly, respiratory dehydrogenase complexes were energized with NADH to initiate redox-driven H^+ pumping into the vesicle lumen, which was in turn detected by the quenching of 9-amino-6-chloro-2-methoxyacradine fluorescence. Most compounds were tested at concentrations of 2 μg/mL to establish whether ETC inhibition occurred in the same range as ATP synthase inhibition (Figure S2).
NADH-driven proton pumping activity in inverted membrane vesicles was measured as previously described. Briefly, vesicles were diluted to 0.5 mg/mL in HMK buffer (50 mM HEPES, 2 mM MgCl2, 300 mM KCl, pH 7.5) with 0.3 μg/mL 9-amino-6-chloro-2-methoxyacridine (ACMA) and distributed into wells of a black 96-well plate containing various concentrations of inhibitors dissolved in DMSO. ACMA fluorescence (λex = 415 nm, λem = 485 nm) was monitored using a BioTek H1 multimode plate reader. Proton pumping was initiated by addition of NADH to 0.8 mM and terminated by addition of nigericin to 0.5 μg/mL. Activity was defined as the percent quenching of fluorescence, where fluorescence values are normalized to the maximum fluorescence following the addition of nigericin.
Figure S2. Inhibition of the AB electron transport chain (ETC) by compounds at 2 µg/mL.
ETC H+-pumping activity in inverted inner membrane vesicles prepared from AB cells was determined by the quenching of ACMA dye upon initiation with NADH. Addition of nigericin returned fluorescence to baseline, and relative fluorescence quenching is defined as the minimum fluorescence over the maximum fluorescence after addition of nigericin. Relative ETC inhibition (bars) is the fraction of fluorescence quenching decreased by the presence of 2 µg/mL compound.
(1 picture or pasted object on this page, not shown here)

[8] = inverted inner membrane vesicles, 0.0625-64 µg/mL, n≥3, Table S1, read-out: AB ATP Synthase Inhibition IC50 (converted)
[9] = Figure 2, read-out: IC50, AB ATP synthase inhibition (converted)

T1 sequence (A3M139 whole entry): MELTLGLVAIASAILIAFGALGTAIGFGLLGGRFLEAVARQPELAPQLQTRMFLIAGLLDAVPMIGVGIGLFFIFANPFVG

SMILES | MIC, HEK 293 (cytotoxicity) (HEK 293 cells) [µg/mL] | IC50 [1] [µM] | MIC (AB ATCC 17978 [2]) [µg/mL] | fold change of MIC, AB ATCC 17978 (AB ATCC 17978 [2]) | fractional inhibitory concentration index (FICI) / interaction with colistin, AB ATCC 17978 (AB ATCC 17978 [2]) | MIC +colistin, AB ATCC 17978 (AB ATCC 17978 [2]; with 0.5 μg/mL colistin) | MDR AB MIC (MDR AB BAA 1605 [3]) [µg/mL] | MIC (AB ATCC 17978 [4]) [µg/mL] | MIC (MDR AB BAA 1605 [5]) [µg/mL] | MIC (AB BAA 1605) [µg/mL] | fold change of MIC, AB BAA 1605 (AB BAA 1605) | fractional inhibitory concentration index (FICI) / interaction with colistin, MDR AB BAA 1605 (AB BAA 1605) | MIC +colistin, AB BAA 1605 (AB BAA 1605; with 0.25 μg/mL colistin) | Hill coefficient (Hill slope) [6] | IC50 [6, 8] [µM] | ETC inhibition [7] [%] | IC50 [6, 9] [µM] | MIC +colistin, AB BAA 1605 (AB BAA 1605; with 0.125 μg/mL colistin) | MIC +colistin, AB ATCC 17978 (AB ATCC 17978 [2]; with 0.25 μg/mL colistin)
CCN1CCC(CCNCc2cc3cc(-c4ccccc4)ccc3nc2SCc2ccccc2)CC1 [WSA 261, reference compound] | 8 (≈ 16.1 µM) | 1.55 | 8 | 2 | additivity | 4 (0.5 μg/mL Col) | 16 | 8 (≈ 16.1 µM) | 16 (≈ 32.3 µM) | 16 | 2 | additivity | 8 (0.25 μg/mL Col) | – | – | – | – | – | –
CN1CCN(CCNCc2cc(-c3ccc(F)cc3)cnc2SCc2ccccc2)CC1 [WSA 273] | 4 (≈ 8.88 µM) | – | – | – | – | – | – | 32 (≈ 71 µM) | 128 (≈ 284 µM) | – | – | – | – | -0.8 | 1.89 | 40 | – | – | –
CN1CCN(CCNCc2cc(-c3ccc(F)cc3F)cnc2SCc2ccccc2)CC1 [WSA 274] | 4 (≈ 8.54 µM) | – | – | – | – | – | – | 32 (≈ 68.3 µM) | 128 (≈ 273 µM) | – | – | – | – | -0.8 | 1.71 | 40 | – | – | –
COc1ccc(-c2cnc(SCc3ccccc3)c(CNCCN3CCN(C)CC3)c2)cc1F [WSA 275] | 4 (≈ 8.32 µM) | – | – | – | – | – | – | 32 (≈ 66.6 µM) | 128 (≈ 266 µM) | – | – | – | – | -0.7 | 0.499 | 40 | 0.416 | – | –
CN1CCN(CCNCc2cc(-c3ccc(N(C)C)cc3)cnc2SCc2ccccc2)CC1 [WSA 276] | 16 (≈ 33.6 µM) | – | 16 | 2 | – | 8 (0.5 μg/mL Col) | – | 16 (≈ 33.6 µM) | 32 (≈ 67.3 µM) | 32 | 4 | synergy | 8 (0.25 μg/mL Col) | -0.6 | – | – | 0.673 | – | –
Cc1ccc(-c2cnc(SCc3ccccc3)c(CNCCN3CCN(C)CC3)c2)cc1 [WSA 280] | 16 (≈ 35.8 µM) | – | 16 | 2 | – | 8 (0.5 μg/mL Col) | – | 16 (≈ 35.8 µM) | 32 (≈ 71.6 µM) | 32 | 2 | – | – | -0.8 | – | – | 1.54 | 16 (0.125 μg/mL Col) | –
COc1ccc(-c2cnc(SCc3ccccc3)c(CNCCC3CCN(C4CCCC4)CC3)c2)cc1 [WSA 288] | 16 (≈ 31 µM) | – | 16 | 4 | ≤ 0.5 | – | – | 16 (≈ 31 µM) | 32 (≈ 62 µM) | 32 | 4 | synergy | 8 (0.25 μg/mL Col) | -0.9 | – | – | 0.485 | – | –
Cc1ccc(-c2cnc(SCc3ccccc3)c(CNCCC3CCN(C4CCCC4)CC3)c2)cc1 [WSA 289] | 16 (≈ 32 µM) | – | 16 | 4 | ≤ 0.5 | – | – | 16 (≈ 32 µM) | 32 (≈ 64 µM) | 32 | 2 | – | – | -0.7 | – | – | 0.48 | 16 (0.125 μg/mL Col) | –
Fc1ccc(-c2cnc(SCc3ccccc3)c(CNCc3ccc(CN4CCCC4)cc3)c2)cc1 [WSA 298] | 16 (≈ 32.1 µM) | – | 16 | 2 | – | – | – | 16 (≈ 32.1 µM) | 32 (≈ 64.3 µM) | 32 | 4 | synergy | 8 (0.25 μg/mL Col) | -0.8 | – | – | 1.31 | – | 8 (0.25 μg/mL Col)

From publication PMC12509006, “Synthesis and Evaluation of Pyridine-Based Antibacterial Agents that Inhibit ATP Synthase in Acinetobacter baumannii” (ACS Omega, 2025)
